Measured values: US11912710B2 (UPPTHERA, INC., priority 2021, dated 2024)

Legend:
Format in all cases: cell-based
[1] = tested on: MRC-5 cell line; assay: Cell viability assay (cytotoxicity) for MRC-5 cell line; conditions: Homo sapiens, MRC5, 120 h; MRC-5 normal cell line, 5 days, EZ-Cytox, 10000 nM to 1.52 nM; read-out: Activity: IC50 value to MRC-5 cell line (Exemplary Compounds)
Description: 4. Cell Viability Assay for MRC-5 Cell Line
(1) Culture of MRC-5 Cell Line
Passage of cultured cells was maintained within P15.
(2) Treatment of Compounds of the Present Invention
Then, it was cultured in 37° C.
(3) Cytotoxicity Experiment
CO2 incubator for 4 hours.
Cell Viability Assay for MRC-5 cell line

[2] = biological target: T1, PLK1 (Homo sapiens, UniProt P53350); assay: Luciferase assay for PLK1 in HeLa LgBit (Plk1-HiBit KI) cell line; conditions: 300 nM compound, luminescence after 9 hours, read-out: Activity: ratio of the luminescense value of compound treatment group to DMSO treatment group
T1 construct: endogenous in cells; host or cells: HeLa LgBit (Plk1-HiBit KI): HeLa cells stably expressing LgBit, with HiBit knocked into the endogenous Plk1 locus by CRISPR/Cas9
Description: 2. Luciferase Assay for PLK1
(1) Preparation and Culture of HeLa LgBit (Plk1-HiBit KI) Cell Line
A HeLa cell line in which the LgBit vector was transfected and expressed stably was prepared. Then, after constructing gRNA and donor to express the HiBit amino acid sequence behind the C-terminal of the Plk1 gene, which was inherent in the cell, it was inserted into the cell together with a vector capable of expressing CRISPR/Cas9. Only the cells in which the insertion was completed and knock-in had progressed were selected, sub-cultured and used.
(2) Treatment of Compounds of the Present Invention and Method of Luciferase Assay
In the case of HeLa LgBit (Plk1-HiBit KI), the compounds were treated after being released after thymidine block, and the process was as follows. Thymidine (Sigma-Aldrich Cat. No. T9250-5G) was completely dissolved in DW and used in the experiment. For thymidine block, the products were treated with 2 mM of thymidine and then incubated for 24 hours. For release and chemical treatment, the medium was suctioned and washed with 1×PBS. TrypLE™ was added and incubated in 37° C. CO2 incubator for 5 min. Cells neutralized by adding complete media were counted through a counter. For each well of a 96-well culture plate (SPL), 3.3×10^4 cells and a total medium volume of 150 μL were seeded and incubated in a CO2 incubator.
Each cell line was incubated in a CO2 incubator for 18 hours, and Endurazine was added to each well to make up 4% of the total volume. After adding the compound of the present invention in a 96-well white plate (SPL) to a concentration of 300 nM, the wavelength of the plate reader (BMG Labtech, CLARIOstar Plus) was set to […], and then the luminescence was tracked in real time.
In Table 2, Activity represents the ratio of the luminescense value of each Exemplary Compound treatment group to DMSO treatment group (+++: <0.3, ++<0.6, +<0.7).

[3] = tested on: NCI-H526 cell line; assay: Cell viability assay for H526 cell line; conditions: Homo sapiens, NCI-H526, 120 h; H526 cells, 5 days, EZ-Cytox, 3000 nM to 0.46 nM
Description: 3. Cell Viability Assay for H526 Cell Line
(1) Culture of NCI-H526 Cell Line
(2) Treatment of Compounds of the Present Invention and Method of Cell Viability Assay
After treating the compound to each well to make the total volume of 200 μL, it was cultured in a CO2 incubator (Thermo Fisher Science, Cat. No. 4111) for 5 days.
The absorbance of the completely cultured sample was measured by setting the wavelength of a plate reader (BMG Labtech, CLARIOstar Plus) to […], and was measured after shaking for 3 minutes in a plate reader before measurement.
In Table 3, Activity represents IC50 value of each Exemplary Compound treatment group to H526 cell line (A: <30 nM, B: <50 nM, C: <100 nM, D: <200 nM, E: <400 nM).

T1 sequence (P53350 whole entry): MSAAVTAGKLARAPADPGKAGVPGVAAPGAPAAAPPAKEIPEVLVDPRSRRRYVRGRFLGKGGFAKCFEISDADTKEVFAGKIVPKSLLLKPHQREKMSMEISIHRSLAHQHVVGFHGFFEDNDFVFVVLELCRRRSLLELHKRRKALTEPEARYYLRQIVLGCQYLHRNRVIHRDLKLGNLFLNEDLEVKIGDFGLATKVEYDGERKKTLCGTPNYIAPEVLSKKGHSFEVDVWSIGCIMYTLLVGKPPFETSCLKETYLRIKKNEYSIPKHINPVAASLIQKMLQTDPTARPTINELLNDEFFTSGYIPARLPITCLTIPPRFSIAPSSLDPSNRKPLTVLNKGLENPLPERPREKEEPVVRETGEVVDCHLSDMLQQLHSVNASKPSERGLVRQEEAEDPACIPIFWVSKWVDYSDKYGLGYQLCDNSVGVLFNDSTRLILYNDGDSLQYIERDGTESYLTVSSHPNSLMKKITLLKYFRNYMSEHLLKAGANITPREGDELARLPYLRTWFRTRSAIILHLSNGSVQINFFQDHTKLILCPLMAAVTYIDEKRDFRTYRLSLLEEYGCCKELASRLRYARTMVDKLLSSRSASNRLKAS

| Structure (SMILES) | IC50 [1] [µM] | remaining activity at 0.3 µM [2] [%] | IC50 [3] [µM] |
| --- | --- | --- | --- |
| COc1cc(C(=O)NC2CCN(C(=O)CCCOc3ccc(C4CCC(=O)NC4=O)cc3)CC2)c(F)cc1Nc1ncc2c(n1)N(C1CCCC1)CC(F)(F)C(=O)N2C (stereo not drawn) [Compound 3, 4-((9-cyclopentyl-7,7-difluoro-5-methyl-6-oxo-6,7,8,9-tetrahydro-5H-pyrimido[4,5-b][1,4]diazepin-2-yl)amino)-N-(1-(4-(4-(2,6-dioxopiperidin-3-yl)phenoxy)butanoyl)piperidin-4-yl)-2-fluoro-5-methoxybenzamide] | > 10 | < 60 | < 0.1 |
| COc1cc(C(=O)NC2CCN(C(=O)CCCOc3cccc(C4CCC(=O)NC4=O)c3)CC2)ccc1Nc1ncc2c(n1)N(C1CCCC1)CC(F)(F)C(=O)N2C (stereo not drawn) [Compound 4, 4-((9-cyclopentyl-7,7-difluoro-5-methyl-6-oxo-6,7,8,9-tetrahydro-5H-pyrimido[4,5-b][1,4]diazepin-2-yl)amino)-N-(1-(4-(3-(2,6-dioxopiperidin-3-yl)phenoxy)butanoyl)piperidin-4-yl)-3-methoxybenzamide] | > 10 | < 30 | < 0.05 |
| COc1cc(C(=O)NC2CCN(C(=O)CCN3CCN(c4ccc(C5CCC(=O)NC5=O)cc4)CC3)CC2)ccc1Nc1ncc2c(n1)N(C1CCCC1)CC(F)(F)C(=O)N2C (stereo not drawn) [Compound 5, 4-((9-cyclopentyl-7,7-difluoro-5-methyl-6-oxo-6,7,8,9-tetrahydro-5H-pyrimido[4,5-b][1,4]diazepin-2-yl)amino)-N-(1-(3-(4-(4-(2,6-dioxopiperidin-3-yl)phenyl)piperazin-1-yl)propanoyl)piperidin-4-yl)-3-methoxybenzamide] | > 10 | < 60 | < 0.03 |
| COc1cc(C(=O)NC2CCN(C(=O)CCN3CCN(c4cccc(C5CCC(=O)NC5=O)c4)CC3)CC2)ccc1Nc1ncc2c(n1)N(C1CCCC1)CC(F)(F)C(=O)N2C (stereo not drawn) [Compound 6, 4-((9-cyclopentyl-7,7-difluoro-5-methyl-6-oxo-6,7,8,9-tetrahydro-5H-pyrimido[4,5-b][1,4]diazepin-2-yl)amino)-N-(1-(3-(4-(3-(2,6-dioxopiperidin-3-yl)phenyl)piperazin-1-yl)propanoyl)piperidin-4-yl)-3-methoxybenzamide] | > 10 | < 60 | < 0.03 |
| COc1cc(C(=O)NC2CCC(N(C)CC3CCN(c4ccc(C5CCC(=O)NC5=O)cc4F)CC3)CC2)ccc1Nc1ncc2c(n1)N(C1CCCC1)CC(F)(F)C(=O)N2C (stereo not drawn) [Compound 7, 4-((9-cyclopentyl-7,7-difluoro-5-methyl-6-oxo-6,7,8,9-tetrahydro-5H-pyrimido[4,5-b][1,4]diazepin-2-yl)amino)-N-((1r,4r)-4-(((1-(4-(2,6-dioxopiperidin-3-yl)-2-fluorophenyl)piperidin-4-yl)methyl)(methyl)amino)cyclohexyl)-3-methoxybenzamide] | > 10 | < 30 | < 0.03 |
| COc1cc(C(=O)NC2CCC(CN(C)C3CCN(c4ccc(C5CCC(=O)NC5=O)cc4F)CC3)CC2)ccc1Nc1ncc2c(n1)N(C1CCCC1)CC(F)(F)C(=O)N2C (stereo not drawn) [Compound 8, 4-((9-cyclopentyl-7,7-difluoro-5-methyl-6-oxo-6,7,8,9-tetrahydro-5H-pyrimido[4,5-b][1,4]diazepin-2-yl)amino)-N-((1r,4r)-4-(((1-(4-(2,6-dioxopiperidin-3-yl)-2-fluorophenyl)piperidin-4-yl)(methyl)amino)methyl)cyclohexyl)-3-methoxybenzamide] | > 10 | < 30 | < 0.03 |
| COc1cc(C(=O)NC2CCN(C(=O)CC3CCN(c4ccc(C5CCC(=O)NC5=O)cc4F)CC3)CC2)ccc1Nc1ncc2c(n1)N(C1CCCC1)CC(F)(F)C(=O)N2C (stereo not drawn) [Compound 10, 4-((9-cyclopentyl-7,7-difluoro-5-methyl-6-oxo-6,7,8,9-tetrahydro-5H-pyrimido[4,5-b][1,4]diazepin-2-yl)amino)-N-(1-(2-(1-(4-(2,6-dioxopiperidin-3-yl)-2-fluorophenyl)piperidin-4-yl)acetyl)piperidin-4-yl)-3-methoxybenzamide] | > 10 | < 30 | < 0.05 |
| COc1cc(C(=O)NC2CCN(C(=O)CCN3CCN(c4ccc(C5CCC(=O)NC5=O)cc4F)CC3)CC2)ccc1Nc1ncc2c(n1)N(C1CCCC1)CC(F)(F)C(=O)N2C (stereo not drawn) [Compound 11, 4-((9-cyclopentyl-7,7-difluoro-5-methyl-6-oxo-6,7,8,9-tetrahydro-5H-pyrimido[4,5-b][1,4]diazepin-2-yl)amino)-N-(1-(3-(4-(4-(2,6-dioxopiperidin-3-yl)-2-fluorophenyl)piperazin-1-yl)propanoyl)piperidin-4-yl)-3-methoxybenzamide] | > 10 | < 30 | < 0.03 |
| COc1cc(C(=O)NN2CCC(CCN3CCN(c4ccc(C5CCC(=O)NC5=O)cc4F)CC3)CC2)ccc1Nc1ncc2c(n1)N(C1CCCC1)CC(F)(F)C(=O)N2C (stereo not drawn) [Compound 12, 4-((9-cyclopentyl-7,7-difluoro-5-methyl-6-oxo-6,7,8,9-tetrahydro-5H-pyrimido[4,5-b][1,4]diazepin-2-yl)amino)-N-(4-(2-(4-(4-(2,6-dioxopiperidin-3-yl)-2-fluorophenyl)piperazin-1-yl)ethyl)piperidin-1-yl)-3-methoxybenzamide] | 20 | < 30 | < 0.03 |
| COc1cc(C(=O)NC2CCCN(C(=O)CN3CCN(c4ccc(C5CCC(=O)NC5=O)cc4F)CC3)C2)ccc1Nc1ncc2c(n1)N(C1CCCC1)CC(F)(F)C(=O)N2C (stereo not drawn) [Compound 13, 4-((9-cyclopentyl-7,7-difluoro-5-methyl-6-oxo-6,7,8,9-tetrahydro-5H-pyrimido[4,5-b][1,4]diazepin-2-yl)amino)-N-(1-(2-(4-(4-(2,6-dioxopiperidin-3-yl)-2-fluorophenyl)piperazin-1-yl)acetyl)piperidin-3-yl)-3-methoxybenzamide] | > 10 | < 60 | < 0.05 |
| COc1cc(C(=O)NC2CCCN(C(=O)CCN3CCN(c4ccc(C5CCC(=O)NC5=O)cc4F)CC3)C2)ccc1Nc1ncc2c(n1)N(C1CCCC1)CC(F)(F)C(=O)N2C (stereo not drawn) [Compound 14, 4-((9-cyclopentyl-7,7-difluoro-5-methyl-6-oxo-6,7,8,9-tetrahydro-5H-pyrimido[4,5-b][1,4]diazepin-2-yl)amino)-N-(1-(3-(4-(4-(2,6-dioxopiperidin-3-yl)-2-fluorophenyl)piperazin-1-yl)propanoyl)piperidin-3-yl)-3-methoxybenzamide] | > 10 | < 60 | < 0.1 |
| COc1cc(C(=O)NC2CC3(CCN(CC4CCN(c5ccc(C6CCC(=O)NC6=O)cc5F)CC4)CC3)C2)ccc1Nc1ncc2c(n1)N(C1CCCC1)CC(F)(F)C(=O)N2C (stereo not drawn) [Compound 15, 4-((9-cyclopentyl-7,7-difluoro-5-methyl-6-oxo-6,7,8,9-tetrahydro-5H-pyrimido[4,5-b][1,4]diazepin-2-yl)amino)-N-(7-((1-(4-(2,6-dioxopiperidin-3-yl)-2-fluorophenyl)piperidin-4-yl)methyl)-7-azaspiro[3.5]nonan-2-yl)-3-methoxybenzamide] | > 10 | < 30 | < 0.03 |
